Columns and labels:
Type in all cases: in vivo, rat
[1] = Rise of mean body temperature (rectal) after immunization; settings: 8 mg; for Mean body temperature (MBT): FIG. 6C
Method: (§1) Male Wistar rats, 10 weeks of age, were housed with 3 rats per cage. Rats had ad libitum access to food en water. Rats were immunized at day 0, 14 and 28, according to the experimental design (Table 2) with 400 μl vaccine comprising 200 μl water phase and 200 μl adjuvant. Two intramuscular injections (100 μl each) were injected at the left and right inner thigh and 2×100 μl was injected subcutaneously in the neck region. Each group consists of 5 rats.
At least once daily clinical observations were made in all animals. Mean body temperature (MBT) was determined for all animals before and after each immunization by rectal temperature. Mean body temperature per group (MBT) are depicted as to preimmunization levels FIG. 6.

[2] = Injection site reactions (tissue swelling) after immunization; settings: 8 mg
Method: as §1
Before vaccination the injection sites were assessed for the presence of abnormalities or existing local reactions. If such abnormalities or local reactions were absent, the animal was injected on that site. After each immunization, injection sites were inspected for tissue swelling. Size of subcutaneous injection sites was measured (diameter in mm). Since the intramuscular injection site reactions in the hind leg is difficult to determine, only the presence of intramuscular injections sites (tissue swelling) was determined and expressed in arbitrary values (present=10 mm, not present=0 mm) Scores of injection site reactions were added up per rat for the four injection sites at each inspection, means per group were calculated The results thereof are presented in FIG. 7.

testosterone = test: Serum testosterone levels (Testosterone EIA) of immunized rats
Method: (§2) The sulpho-lipo based adjuvants were tested in different doses varying from 0.008-8 mg per dose. The adjuvants were tested in combination with a GnRH-KLH conjugate with 0.7 μg conjugated GnRH per dose. Adjuvanticity of the adjuvants was compared with the positive control adjuvant, sulpho-lipo-sucrose (disaccharide with one sulphate ester group and seven lauroyl acid ester groups, S1L7-Su) and with negative control adjuvant consisting of an squalane-in-water emulsion without saccharide compound and one group receiving PBS only.
as §1
(§3) Blood samples for serum were collected from all animals prior to the immunizations and at day 41 and 56
Serum testosterone levels were measured using a commercially available Testosterone EIA (Beckman Coulter, Woerden, The Netherlands) according to the instructions of the manufacturer.

GnRH = GnRH specific antibody titers by ELISA in serum of rats immunized with GnRH-KLH conjugate plus adjuvant; settings: for GnRH antibody titers, dose dependence: male Wistar rats, adjuvant 0.008-8 mg per dose, GnRH-KLH conjugate, FIG. 4A-B; for GnRH antibody titers versus squalane emulsion only (NS): rats that received 8 mg saccharide compound, FIG. 4C; for GnRH antibody titers versus adjuvant without saccharide (NS, group 11): rats treated with 0.08-8 mg sulpho-lipo-trisaccharide
Method: as §2
Vaccines 1-13 were formulated by adding equal volume of adjuvant (comprising the saccharide compounds as shown in table 2) to the water phase (containing 0.7 μg conjugated GnRH). Vaccine 14 consists of PBS only. The following vaccines were prepared:
as §1, §3
GnRH specific antibodies were measured by ELISA. Plates (96 wells) were precoated with 0.2% glutardialdehyde in phosphate buffer (pH 5) for 3 hours at room temperature, washed with 0.1 M phosphate buffer (pH 8) and coated with 100 μl per well of a solution containing 10 μg GnRH (Pepscan Presto, Lelystad, The Netherlands) per ml phosphate buffer (pH 8) and incubated for 3 hours at 37° C. Coated plates were washed with 0.05% Tween-80. Serum samples were diluted (1/10) in PEM (1% Tween-80 with 4% horse serum). This dilution was further diluted in the 96-well plate (100 μl per well, 8 steps) and incubated 1 hour at 37° C. After washing with 0.05% Tween-80, 100 μl of goat-anti-rat antiserum conjugated with peroxidase in PEM was added to the wells. Plates were incubated for 1 h at 37° C. and washed 12 times with 0.05% Tween-80. Subsequently, 150 μl of a substrate solution containing 2,2-azino-bis-(3-benzthiazoline-6-sulphonic acid) (ABTS) plus H2O2 was added to the wells of the plates. Plates were incubated for 45 minutes at ambient room temperature and absorbance was measured at 405 nm. Antibody titer was expressed as the 10 log of the dilution factor that gives an optical density of 4 times background (approx. 100).

[3] = from 0.08 mg sulpho-lipo-trisaccharide onwards, FIG. 5A-B

Which “Mean body temperature (MBT)” value ([1]; 3 hours post vaccination) does the source give for sulpho-lipo-sucrose [Example S1L7-Su-8] here?
Its value is “slightly higher increase in MBT than the trisaccharide compounds”.

And the “Mean body temperature (MBT)” value ([1]; 21 hours after vaccination)?
The value was “still increased”.

And the “Injection site reactions at final inspection” value ([2]; 5 days after immunization)?
The value was “still significant injection site reactions were present”.

What about the “Injection site reactions, course of size” value ([2]; FIG. 7C) of the same molecule?
The value was “increased in size up to day 4”.

What about the “Injection site reactions, size relative to sulpho-lipo-trisaccharides” value ([2]; FIG. 7C) of the same molecule?
The value was “more than 4 times”.

What does the source list for “Sulpho-Lipo-Raffinose [Example S1L10-Ra]”?
Serum testosterone levels (testosterone; [3]): dramatic decline of serum testosterone levels; GnRH antibody titers, dose dependence (GnRH): dose dependent antibody titers against GnRH; GnRH antibody titers versus squalane emulsion only (NS) (GnRH): substantially higher; GnRH antibody titers versus adjuvant without saccharide (NS, group 11) (GnRH): substantially higher

Which Serum testosterone levels (testosterone; [3]) does the source give for “Sulpho-Lipo-Maltotriose [Example S1L10-Ma]” here?
Its Serum testosterone levels is “dramatic decline of serum testosterone levels”.

What about the “GnRH antibody titers, dose dependence” value (GnRH) of the same molecule?
The value was “dose dependent antibody titers against GnRH”.

What about the “GnRH antibody titers versus squalane emulsion only (NS)” value (GnRH) of the same molecule?
Its value is “substantially higher”.

And the “GnRH antibody titers versus adjuvant without saccharide (NS, group 11)” value (GnRH)?
Its value is “substantially higher”.

With `CCCCCCCCCCCC(=O)OC[C@H]1O[C@H](OC[C@H]2O[C@H](O[C@]3(COC(=O)CCCCCCCCCCC)O[C@H](COC(=O)CCCCCCCCCCC)[C@@H](OC(=O)CCCCCCCCCCC)[C@@H]3OC(=O)CCCCCCCCCCC)[C@H](OC(=O)CCCCCCCCCCC)[C@@H](OC(=O)CCCCCCCCCCC)[C@@H]2OC(=O)CCCCCCCCCCC)[C@H](OC(=O)CCCCCCCCCCC)[C@@H](OC(=O)CCCCCCCCCCC)[C@H]1OC(=O)CCCCCCCCCCC` [Example L11-Ra, Lipo-Raffinose] as the molecule, how does the “Mean body temperature (MBT), any increase” value ([1]; after immunization) read?
The value was “did not induce any increase in MBT”.

And the Serum testosterone levels (testosterone; 8 mg, FIG. 5C)?
Its Serum testosterone levels is “induced decreasing testosterone levels”.

What about the “Adverse effects at the site of injection” value [2] of the same molecule?
The value was “did not induce any adverse effects at the site of injection”.

And the “GnRH antibody titers versus squalane emulsion only (NS)” value (GnRH)?
Its value is “substantially higher”.
